Laboratory results published in ChEMBL document CHEMBL3585330, “Anticancer activity of koningic acid and semisynthetic derivatives” (Bioorg Med Chem, 2015).
The source made the active and inactive calls. No cut-off for these calls is given here.

Tests used:
[1] = tested on: A549; test: (§1) Antiproliferative activity against human A549 cells assessed as inhibition of cell proliferation incubated for 72 hrs by conventional ATP quantification method; assay type: functional, cell-based; settings: A549, 72 h
[2] = tested on: HCT-116; test: (§2) Antiproliferative activity against human HCT116 cells assessed as inhibition of cell proliferation incubated for 72 hrs by conventional ATP quantification method; assay type: functional, cell-based; settings: HCT-116, 72 h
[3] = Antiproliferative activity against human NAMALWA cells assessed as inhibition of cell proliferation incubated for 72 hrs by conventional ATP quantification method; assay type: functional, cell-based; settings: NAMALVA
[4] = Antiproliferative activity against human WM266.4 cells assessed as inhibition of cell proliferation incubated for 72 hrs by conventional ATP quantification method; assay type: functional, cell-based; settings: WM 266-4, 72 h
[5] = tested on: A-375; test: Antiproliferative activity against human A375 cells assessed as inhibition of cell proliferation incubated for 72 hrs by conventional ATP quantification method; assay type: functional, cell-based; settings: A-375, 72 h
[6] = tested on: HOP-62; test: Antiproliferative activity against human HOP62 cells assessed as inhibition of cell proliferation incubated for 72 hrs by conventional ATP quantification method; assay type: functional, cell-based; settings: HOP-62, 72 h
[7] = tested on: HT-29; test: Cytotoxicity against human HT-29 cells incubated for 72 hrs under hypoxic conditions by MTS assay; assay type: functional, cell-based
[8] = tested on: KM12; test: Antiproliferative activity against human KM12 cells assessed as inhibition of cell proliferation incubated for 72 hrs by conventional ATP quantification method; assay type: functional, cell-based; settings: KM12, 72 h
[9] = tested on: MDA-MB-231; test: Cytotoxicity against human MDA-MB-231 cells incubated for 72 hrs under hypoxic conditions by MTS assay; assay type: functional, cell-based
[10] = tested on: A549; test: as §1; assay type: functional, cell-based; settings: A549, 72 h; remark: listed apart in the source
[11] = tested on: T47D; test: Antiproliferative activity against human T47D cells assessed as inhibition of cell proliferation incubated for 72 hrs by conventional ATP quantification method; assay type: functional, cell-based
[12] = tested on: TK-10; test: Antiproliferative activity against human TK10 cells assessed as inhibition of cell proliferation incubated for 72 hrs by conventional ATP quantification method; assay type: functional, cell-based; settings: TK-10, 72 h
[13] = tested on: DU-145; test: Antiproliferative activity against human DU145 cells assessed as inhibition of cell proliferation incubated for 72 hrs by conventional ATP quantification method; assay type: functional, cell-based; settings: DU-145, 72 h
[14] = tested on: SK-OV-3; test: Antiproliferative activity against human SKOV3 cells assessed as inhibition of cell proliferation incubated for 72 hrs by conventional ATP quantification method; assay type: functional, cell-based; settings: SK-OV-3, 72 h
[15] = tested on: OVCAR-3; test: Antiproliferative activity against human OVCAR3 cells assessed as inhibition of cell proliferation incubated for 72 hrs by conventional ATP quantification method; assay type: functional, cell-based; settings: OVCAR-3, 72 h
[16] = tested on: NCI-H460; test: Antiproliferative activity against human NCI-H460 cells assessed as inhibition of cell proliferation incubated for 72 hrs by conventional ATP quantification method; assay type: functional, cell-based; settings: NCI-H460, 72 h
[17] = Half life in mouse at 2.5 mg/kg, po by tandem HPLC-mass spectrometry; assay type: ADME, organism-based; settings: in vivo
[18] = tested on: MDA-MB-231; test: Cytotoxicity against human MDA-MB-231 cells incubated for 72 hrs under normoxic conditions by MTS assay; assay type: functional, cell-based
[19] = tested on: A-375; test: Toxicity against human A375 cells assessed as membrane integrity by measuring LDH release incubated for 24 hrs; assay type: cell-based; settings: a-375, 24 h
[20] = AUClast in mouse at 0.5 mg/kg, iv by tandem HPLC-mass spectrometry; assay type: ADME, organism-based; design: dose 0.5 mg/kg, route intravenous, time 0 - last; settings: in vivo
[21] = Antiproliferative activity against human KG1 cells assessed as inhibition of cell proliferation incubated for 72 hrs by conventional ATP quantification method; assay type: functional, cell-based; settings: KG-1, 72 h
[22] = Cmax in mouse at 1.5 mg/kg, ip by tandem HPLC-mass spectrometry; assay type: ADME, organism-based; design: dose 1.5 mg/kg, route intraperitoneal; settings: in vivo
[23] = tested on: Mus musculus; test: Toxicity in Swiss mouse xenografted with human A549 cells assessed as induction of hepatic toxicity at 2.5 and 5 mg/kg, ip dosed every day for 5 consecutive days during 2 weeks (q1d5 x 2 schedule); assay type: organism-based; settings: in vivo, 336 h
[24] = Oral bioavailability in mouse at 2.5 mg/kg by tandem HPLC-mass spectrometry; assay type: ADME, organism-based; settings: in vivo
[25] = Tmax in mouse at 1.5 mg/kg, ip by tandem HPLC-mass spectrometry; assay type: ADME, organism-based; settings: in vivo
[26] = tested on: A-375; test: Antiproliferative activity against human A375 cells assessed as inhibition of cell proliferation incubated for 24 hrs by conventional ATP quantification method; assay type: functional, cell-based; settings: A-375, 24 h
[27] = tested on: A-375; test: Inhibition of cell invasion of human A375 cells at 10 uM by Boyden chamber assay; assay type: functional, cell-based
[28] = tested on: HL-60; test: Antiproliferative activity against human HL60 cells assessed as inhibition of cell proliferation incubated for 72 hrs by conventional ATP quantification method; assay type: functional, cell-based; settings: HL-60, 72 h
[29] = Antiproliferative activity against human BxPC3 cells assessed as inhibition of cell proliferation incubated for 72 hrs by conventional ATP quantification method; assay type: functional, cell-based; settings: BXPC-3, 72 h
[30] = Half life in mouse at 0.5 mg/kg, iv by tandem HPLC-mass spectrometry; assay type: ADME, organism-based; settings: in vivo
[31] = Cmax in mouse at 2.5 mg/kg, po by tandem HPLC-mass spectrometry; assay type: ADME, organism-based; design: dose 2.5 mg/kg, route oral; settings: in vivo
[32] = Toxicity in Swiss mouse xenografted with human A549 cells dosed intraperitoneally every day for 5 consecutive days during 2 weeks (q1d5 x 2 schedule); assay type: organism-based; settings: in vivo, ip
[33] = tested on: A-375; test: Antiproliferative activity against human A375 cells assessed as inhibition of cell proliferation incubated for 24 hrs by conventional ATP quantification method relative to untreated control; assay type: functional
[34] = tested on: PANC-1; test: Induction of ROS generation in human PANC1 cells incubated for 1 hr by DCFH-DA dye based assay; assay type: functional, cell-based
[35] = AUClast in mouse at 1.5 mg/kg, ip by tandem HPLC-mass spectrometry; assay type: ADME, organism-based; design: dose 1.5 mg/kg, route intraperitoneal, time 0 - last; settings: in vivo
[36] = tested on: A-375; test: Toxicity against human A375 cells assessed as reduction in cell viability at 10 uM; assay type: cell-based; settings: a-375, 10 µM
[37] = tested on: A549; test: Antitumor activity against human A549 cells xenografted in Swiss mouse aggressive tumor model assessed as effect on rate of tumor growth at 1 mg/kg, ip dosed every day for 5 consecutive days during 2 weeks (q1d5 x 2 schedule); assay type: functional, organism-based
[38] = tested on: HT-29; test: Cytotoxicity against human HT-29 cells incubated for 72 hrs under normoxic conditions by MTS assay; assay type: functional, cell-based
[39] = tested on: MDA-MB-231; test: Antiproliferative activity against human MDA-MB-231 cells assessed as inhibition of cell proliferation incubated for 72 hrs by conventional ATP quantification method; assay type: functional, cell-based; settings: MDA-MB-231, 72 h
[40] = Initial plasma concentration in mouse at 0.5 mg/kg, iv by tandem HPLC-mass spectrometry; assay type: ADME, organism-based
[41] = Tmax in mouse at 2.5 mg/kg, po by tandem HPLC-mass spectrometry; assay type: ADME, organism-based; settings: in vivo
[42] = tested on: Mus musculus; test: Toxicity in Swiss mouse xenografted with human A549 cells assessed as induction of icterus at 2.5 mg/kg, ip dosed every day for 4 consecutive days during 2 weeks (q1d4 x 2 schedule); assay type: organism-based; settings: in vivo, 336 h
[43] = tested on: HCT-116; test: as §2; assay type: functional, cell-based; settings: HCT-116, 72 h; remark: listed apart in the source
[44] = Half life in mouse at 1.5 mg/kg, ip by tandem HPLC-mass spectrometry; assay type: ADME, organism-based; settings: in vivo
[45] = tested on: Mus musculus; test: Toxicity in Swiss mouse xenografted with human A549 cells assessed as induction of body weight loss at 2.5 mg/kg, ip dosed every day for 4 consecutive days during 2 weeks (q1d4 x 2 schedule); assay type: organism-based; settings: in vivo, 336 h
[46] = tested on: A549; test: Antitumor activity against human A549 cells xenografted in Swiss mouse assessed as reduction of subcutaneous tumor growth at 1 mg/kg, ip dosed every day for 5 consecutive days during 2 weeks (q1d5 x 2 schedule); assay type: functional, organism-based
[47] = tested on: A549; test: Antitumor activity against human A549 cells xenografted in Swiss mouse assessed as effect on median tumor volume at 1 mg/kg, ip dosed every day for 5 consecutive days during 2 weeks (q1d5 x 2 schedule); assay type: functional, organism-based
[48] = tested on: Mus musculus; test: Toxicity in Swiss mouse xenografted with human A549 cells assessed as induction of renal toxicity at 2.5 and 5 mg/kg, ip dosed every day for 5 consecutive days during 2 weeks (q1d5 x 2 schedule); assay type: organism-based; settings: in vivo, 336 h
[49] = Antiproliferative activity against human COLO205 cells assessed as inhibition of cell proliferation incubated for 72 hrs by conventional ATP quantification method; assay type: functional, cell-based; settings: COLO 205, 72 h
[50] = AUClast in mouse at 2.5 mg/kg, po by tandem HPLC-mass spectrometry; assay type: ADME, organism-based; design: dose 2.5 mg/kg, route oral, time 0 - last; settings: in vivo

CC(C)[C@H]1CC[C@@](O)(CO)[C@H]2C(=O)OCC(C(=O)O)=C[C@H]12
IC50 [1]: > 32000 nM
IC50 [2]: > 32000 nM
IC50 [3]: > 32000 nM
IC50 [4]: > 32000 nM
IC50 [5]: > 32 µM

COc1cccc2c1C(=O)c1c(O)c3c(c(O)c1C2=O)C[C@@](O)(C(=O)CO)C[C@@H]3O[C@H]1C[C@H](N)[C@H](O)[C@H](C)O1 [DOXORUBICIN]
IC50 [6]: 20 nM
IC50 [1]: 30 nM
Activity [7]: inactive
IC50 [8]: 20 nM
Activity [9]: inactive
IC50 [10]: 20 nM
IC50 [11]: 20 nM
IC50 [12]: 20 nM
IC50 [13]: 20 nM
IC50 [14]: 20 nM
IC50 [4]: 150 nM
IC50 [15]: 20 nM
IC50 [5]: 0.01 µM
IC50 [16]: 20 nM

CC(C)[C@H]1CC[C@@]2(CO2)[C@H]2C(=O)OCC(C(=O)O)=C[C@H]12
IC50 [6]: 510 nM
IC50 [1]: 458 nM
Activity [7]: Active
IC50 [8]: 410 nM
half-life [17]: 30 min
Activity [18]: Active
Activity [19]: 8%
Activity [9]: Active
AUC(0-t) [20]: 10.4 ng·h/mL
IC50 [21]: 400 nM
Cmax [22]: 249 ng/mL
Activity [23]: Toxic
bioavailability [24]: 17%
Tmax [25]: 15 min
IC50 [26]: 1260 nM
IC50 [2]: 210 nM
inhibition [27]: inactive
IC50 [10]: 990 nM
IC50 [11]: 210 nM
IC50 [28]: 760 nM
IC50 [12]: 660 nM
IC50 [29]: 760 nM
IC50 [13]: 890 nM
IC50 [14]: 340 nM
half-life [30]: 2.4 min
Cmax [31]: 17 ng/mL
MTD at 336 h [32]: 1 mg/kg
inhibition (INH) [33]: 90%
Activity [34]: inactive
AUC(0-t) [35]: 78.7 ng·h/mL
IC50 [3]: 302 nM
IC50 [4]: 509 nM
Activity [36]: 81%
Activity [37]: inactive
Activity [38]: Active
IC50 [39]: 450 nM
IC50 [15]: 690 nM
C0 [40]: 180 ng/mL
IC50 [5]: 1.34 µM
Tmax [41]: 15 min
Activity [42]: Toxic
IC50 [43]: 930 nM
IC50 [16]: 490 nM
half-life [44]: 6 min
Activity [45]: > 15%
Activity [46]: inactive
Activity [47]: inactive
Activity [48]: Toxic
IC50 [49]: 630 nM
AUC(0-t) [50]: 8.6 ng·h/mL

CC(C)[C@H]1CC[C@@](O)(CI)[C@H]2C(=O)OCC(C(=O)O)=C[C@H]12
IC50 [1]: 5430 nM
IC50 [2]: 2140 nM
IC50 [3]: 3260 nM
IC50 [4]: 10100 nM
IC50 [5]: > 10 µM

C=C(C(=O)O)C1OC(=O)[C@H]2[C@H]1[C@@H](C(C)C)CC[C@@]2(O)CI (stereo not given in full)
IC50 [1]: > 10000 nM
IC50 [2]: > 10000 nM
IC50 [3]: > 10000 nM
IC50 [4]: > 10000 nM
IC50 [5]: > 10 µM

CC(C)[C@H]1CC[C@@](O)(CCl)[C@H]2C(=O)OCC(C(=O)OCc3ccc(-c4ccccc4)o3)=C[C@H]12
IC50 [1]: 1720 nM
IC50 [2]: 610 nM
IC50 [3]: 1110 nM
IC50 [4]: 2910 nM
IC50 [5]: 4 µM

BLEOMYCIN
Activity [34]: Active
